In US20220308045A1, “EXPANDABLE LIVER ORGANOIDS, MEDIA COMPOSITION FOR DIFFERENTIATION THEREOF, AND METHOD FOR PRODUCING LIVER ORGANOIDS USING THE SAME” (KOREA RESEARCH INSTITUTE OF BIOSCIENCE AND BIOTECHNOLOGY, priority 2019, published 2022):

Tests used:
[1] = tested on: organoids in the HM conditions; experiment: APAP toxic damage, regeneration and inflammatory response of liver organoids; type: cell-based, human
Description: Time-lapsed images were taken at 37° C. under 5% CO2 at 30-minute intervals with an Olympus IX83 inverted microscope. The diameter of the organoid was measured using ImageJ program at the designated time point from the time lapsed image. Fluorescence images were taken with a confocal microscope. In addition, the organoids were cultured for 30 minutes with 7.5 μM dihydroethidium (Sigma; D7008) for detecting ROS, 30 μM monochlorobimane (Sigma; 69899) for measuring GSH content, and 2.5 μM Syto11 (Thermo Fisher; S7573) for staining nuclei.
In addition, the expressions of high-mobility group protein 1 (HMGB1), which is a protein involved in the detection of ROS and the inflammatory response of cells, ki67, which is a marker indicating cell proliferation, E-cadherin, which is an epithelial marker, LC3B, which is an autophagy marker, and Tom20, a mitochondrial marker, were analyzed at protein level according to the method described in Experimental Example 1.

[2] = tested on: steatosis-induced liver organoids; experiment: Drug screening of autophagy library for suppressing lipid accumulation (Nile red); type: cell-based, human; conditions: 10 μM during steatosis induction; top four of 151 chemical substances
Description: For drug screening, the organoids were treated with 151 chemical substances at a concentration of 10 μM in the autophagy library (Selleckchem; At L2600) during the hepatic steatosis induction period. Then, the organoids were stained with Nile red and fluorescence images were analyzed with a confocal microscope.

[3] = tested on: steatosis-induced liver organoids; experiment: Hepatic steatosis model: lipid droplets by bright field microscope and Nile red staining; type: cell-based, human; conditions: added to FA (oleate and palmitate), compared with FA alone
Description: The organoids in the HM conditions were seeded on a 24-well plate in order to be induced into liver organoids with steatosis. Three days after seeding, 0.5 mM oleate (Sigma; 07501) combined with 12% fatty acid-free BSA (Sigma; A8806) and 0.25 mM palmitate (Sigma; P9767) were added for 3 days, and images of accumulated lipid droplets were observed under a microscope. For Nile red staining, the samples were washed with PBS and fixed with 4% PFA at 4° C. overnight. The organoids were washed with PBS and treated with 10 μg/ml Nile red solution (Thermo Fisher; N1142) at room temperature for 5 minutes. Fluorescence images were taken with a confocal microscope.
(§1) Meanwhile, in order to confirm the effect on the induction of hepatic steatosis, the organoids in the HM conditions were treated with BSA, FA, FA+etomoxir, FA+L-carnitine, and FA+metformin, respectively, and the results were compared.

[4] = tested on: steatosis-induced liver organoids; experiment: Hepatic steatosis model: mitochondrial respiration measured by OCR; type: cell-based, human; conditions: added to FA
Description: (§2) Oxygen consumption rate (OCR) was measured for real-time monitoring of mitochondrial toxicity. Two days before the measurement, the organoids were seeded on XFe 96-well plate (Agilent; 102416-100). The probe cartridge was adjusted overnight in a non-C02 incubator at 37° C. On the assay day, the culture medium was removed and washed with warm assay medium (Agilent Seahorse XF base medium (102353-100) supplemented with 1 mM glutamine, 1 mM pyruvate and 17.5 mM glucose for OCR measurement), and the assay medium was added. The culture dish was placed in a non-CO2 incubator at 37° C. for 1 hour, and OCR was measured using Seahorse XFe96 Flux Analyzer according to the manufacturer's instructions.
(§3) For OCR measurement, ATP synthesis inhibitors (1.5 μM oligomycin and ETC complex V inhibitor), uncoupler (1 μM FCCP), and complex I inhibitor (0.5 μM Rotenone) plus complex III inhibitor (0.5 μM antimycin A) were sequentially added at designated time points. The measured value was normalized to the number of surviving cells measured by Cell Counting Kit-8 (Dogindo; CK04-01).
as §1

[5] = tested on: steatosis-induced liver organoids; experiment: Hepatic steatosis model: triglyceride concentration; type: cell-based, human; conditions: added to FA, compared with BSA control or FA alone
Description: For the analysis of triglyceride concentration, the steatosis-induced organoids were analyzed by using triglyceride assay kit (Abcam; ab65336) according to the manufacturer's instructions. The organoids were homogenized for 5 minutes using 1 mL of a 5% NP-40 solution under the condition of heated to 80 to 100° C. The pellets were diluted 10-fold with dilution water before starting the analysis. Absorbance was measured at 570 nm by using SpectraMax microplate reader.
as §1

in vitro = conditions: human
Description: (§4) The 2D differentiated mature hepatocytes (2D MH) and organoids (HM) in the HM conditions were seeded in a 24-well plate. […] Three days after seeding, the drug was added daily for 6 days, and toxicity was evaluated by calculating the number of cells using Countess II FL (Life Technology). Then, the organoids were washed with PBS, and fluorescence images were taken with a confocal microscope. Relative intensity was measured using ZEN program (Zeiss) in the same region.
(§5) Next, the effects of trovafloxacin (Sigma; PZ0015) and levofloxacin (Sigma; 28,266), which are structurally related antibiotics, on the 2D MH and the organoids in the HM conditions were compared.

[6] = read-out: Cmax concentration; cited from earlier work
CYP3A4 = CYP3A4 (Homo sapiens, UniProt P08684)
Description: Aliquots (100 μL) were diluted with 2-fold volume of acetonitrile containing carbamazepine as an internal standard for sample analysis and transferred to a 96-well plate.

[7] = tested on: organoids in the HM conditions; experiment: in vitro; conditions: human, 6 days
Description: as §4, §5

2D MH = experiment: Drug toxicity by number of cells after 6 days of treatment, 2D differentiated mature hepatocytes; type: cell-based, human; conditions: 0.8 μM and 4 μM
Description: as §4, §5

[8] = tested on: organoids in the HM conditions; experiment: Oxygen consumption rate (OCR) for mitochondrial toxicity in liver organoids; type: cell-based, human; conditions: 0.8 μM and 4 μM, 6 days
Description: as §2, §3

[9] = patients; cited from earlier work

CYP3A4, sequence (P08684 whole entry): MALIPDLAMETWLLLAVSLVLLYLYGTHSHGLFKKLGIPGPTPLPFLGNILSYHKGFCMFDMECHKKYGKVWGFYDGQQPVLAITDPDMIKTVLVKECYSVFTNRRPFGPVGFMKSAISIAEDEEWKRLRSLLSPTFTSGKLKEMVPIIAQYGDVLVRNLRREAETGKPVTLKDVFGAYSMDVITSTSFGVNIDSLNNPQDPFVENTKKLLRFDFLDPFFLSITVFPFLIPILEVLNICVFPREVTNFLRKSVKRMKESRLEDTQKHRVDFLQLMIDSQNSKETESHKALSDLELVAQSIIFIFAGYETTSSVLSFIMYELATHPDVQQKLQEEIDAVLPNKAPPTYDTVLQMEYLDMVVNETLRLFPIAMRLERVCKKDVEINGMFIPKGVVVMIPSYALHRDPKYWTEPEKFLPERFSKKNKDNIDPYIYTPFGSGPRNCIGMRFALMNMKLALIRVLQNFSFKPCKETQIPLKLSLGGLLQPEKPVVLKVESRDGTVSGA

SMILES: CC(=O)Nc1ccc(O)cc1 [APAP, acetaminophen]
- reactive oxygen species (ROS) ([1]; 20 mM APAP, dihydroethidium staining): increased
- expression amounts of Ki67, E-cadherin, and Tom20 ([1]; 20 mM APAP, immunofluorescence): reduced
- expression of HMGB1 ([1]; 20 mM APAP, immunofluorescence, migration to the cytoplasm): reduced
- organoid morphology ([1]; 20 mM daily for 7 days): severe morphological damage
- organoid morphology and size after recovery ([1]; 20 mM for 60 hours from day 2, new HM medium on day 4.5): recovered on day 7
- expression of LC3B ([1]; APAP for 60 hours versus APAP for 5 days): more strongly induced
- expression of IL-10 ([1]; APAP for 60 hours, then new HM medium on day 4.5, qRT-PCR): significantly increased
- expressions of proinflammatory mediators (IL-1β, IL-6, IL-8) and pathological mediators (TNF-α and FasL) ([1]; APAP for 7 days, qRT-PCR): strongly induced

SMILES: CO[C@H]1C[C@@H]2CC[C@@H](C)[C@@](O)(O2)C(=O)C(=O)N2CCCC[C@H]2C(=O)O[C@H]([C@H](C)C[C@@H]2CC[C@@H](OCCO)[C@H](OC)C2)CC(=O)[C@H](C)/C=C(\C)[C@@H](O)[C@@H](OC)C(=O)[C@H](C)C[C@H](C)/C=C/C=C/C=C/1C [Everolimus]
- phenotype of hepatic steatosis and lipid accumulation in drug screening [2]: capable of restoring lipid accumulation

SMILES: COc1ccc(-c2ccc3c(N4CCOCC4)nc(N4C[C@@H](C)O[C@@H](C)C4)nc3n2)cc1CO [KU-0063794]
- phenotype of hepatic steatosis and lipid accumulation in drug screening [2]: capable of restoring lipid accumulation

SMILES: C[N+](C)(C)C[C@H](O)CC(=O)[O-] [L-carnitine]
- accumulation of intracellular lipid droplets / lipid accumulation [3]: significantly reduced
- mitochondrial respiration measured by OCR [4]: recovered

SMILES: O=C(CCCCCN1C(=O)c2cccc3cccc(c23)C1=O)NO [Scriptaid]
- phenotype of hepatic steatosis and lipid accumulation in drug screening [2]: capable of restoring lipid accumulation

SMILES: CC(=O)Nc1ccc(C(=O)Nc2ccccc2N)cc1 [Tacedinalin, Tacedinaline]
- phenotype of hepatic steatosis and lipid accumulation in drug screening [2]: capable of restoring lipid accumulation

SMILES: CCOC(=O)[C@@]1(CCCCCCOc2ccc(Cl)cc2)CO1 [etomoxir]
- accumulation of intracellular lipid droplets / lipid accumulation [3]: significant accumulation
- intracellular triglyceride concentration [5]: significantly increased
- mitochondrial respiration measured by OCR [4]: significantly reduced

SMILES: C[C@H]1COc2c(N3CCN(C)CC3)c(F)cc3c(=O)c(C(=O)O)cn1c23 [levofloxacin]
- cytotoxicity at 6 days, 100 μM (in vitro): 36%
- Cmax [6]: 23.8 µM

SMILES: CN(C)C(=N)N=C(N)N [metformin]
- accumulation of intracellular lipid droplets / lipid accumulation [3]: slightly reduced
- intracellular triglyceride concentration [5]: not reduced

SMILES: C[C@]12CC[C@H]3[C@@H](CCC4=CC(=O)CC[C@@]43C)[C@@H]1CC[C@@H]2O [testosterone]
- metabolism to 6β-hydroxytestosterone (CYP3A4): directly hydroxylated

SMILES: Cc1c(C)c2c(c(C)c1O)CCC(C)(COc1ccc(CC3SC(=O)NC3=O)cc1)O2 (stereo not drawn) [troglitazone, Troglitazone]
- toxic response, 2D MH versus organoids [7]: different in 2D and 3D models

SMILES: N[C@@H]1[C@H]2CN(c3nc4c(cc3F)c(=O)c(C(=O)O)cn4-c3ccc(F)cc3F)C[C@@H]12 [trovafloxacin]
- number of cells (2D MH): little change
- OCR (mitochondrial respiration) [8]: reduction of OCR
- Cmax [6]: 4.1 µM
- reported side effect [9]: patient death due to liver failure
